Source: US12076307B2, “Compositions for prevention or treatment of acute radiation syndrome and other radiation exposure” (priority 2017, dated 2024)
Several values for one entry are separate records, joined by “and”; a condition that tells them apart may be missing. Equal values may be shown once.

Columns and labels:
Balb/c mice, 6.11 Gy TBI = assay: Structural analog / calorie effect study: EC-18, PLH, olive oil in 6.11 Gy ARS model; assay type: in vivo, mouse; settings: 250 mg/kg daily
Description: Similarly, a structural analog efficacy study was conducted to identify the optimally functional molecule in the ARS murine model. The study was performed with the structural analog in which the acetyl group in EC-18 is replaced with a hydroxyl group (yielding palmitic linoleic hydroxyl glycerol, PLH) in 20 Balb/c mice (10 female and 10 male) per group. Mice were irradiated with TBI of 6.11Gy at day 0 and 250 mg/kg of EC-18 or PLH were given daily in-life.
The purpose of this study was to assess whether extra calories of EC-18 contribute to the enhanced survival in mice after exposure to a whole-body sublethal dose of γ-radiation. The study was performed with the structural analog in which the acetyl group in EC-18 is replaced with a hydroxyl group (yielding PLH) in a total of 100 BALB/c mice ([…]; 20 animals per study group) aged at 11 weeks. Mice were irradiated with TBI of 6.11Gy at day 0 and the same dosage (250 mg/kg) of EC-18, PLH, or olive oil (vehicle control) were given daily in-life.

[1] = Whole-body autoradiography of rats after single oral [14C]EC-18; assay type: in vivo, rat; settings: 200 mg/kg oral, fasted
Description: Male albino rats in fasted conditions were administered a single dose of [^14C]EC-18 (oral dose of 200 mg/kg, vehicle: olive oil). The distribution and levels of radioactivity in the body were observed by whole-body autoradiography performed at 0.25, 1, 8, and 24 hrs after [^14C]EC-18 administration.

[2] = Whole blood and lymphatic radioactivity in rats after single oral [14C]EC-18 100 mg/kg; assay type: in vivo, rat; settings: 100 mg/kg oral, n=3; for Tmax: 100 mg/kg
Description: Male SD rats in fasted condition were administered a single dose of [^14C]EC-18 (oral dose of 100 mg/kg; vehicle: olive oil), and the radioactive concentration of the EC-18 was measured in whole blood samples at 0.5, 1, 2, 3, 4, 6, and 8 hrs after its administration. In parallel, male rats with a cannula inserted into the intestinal tract were administered a single dose of [^14C]EC-18 (oral dose of 100 mg/kg; vehicle: olive oil) and the concentration of EC-18-related radioactivity was measured in lymphatic fluid collected in conscious rats at 0.5, 1, 2, 3, 4, 6, and 8 hrs after its administration (FIG. 60). Then, the values of PK parameters were calculated using the quantitative data from whole blood and lymphatic fluid samples (Table 20). Following a single oral administration of [14C]EC-18, EC-18 concentration in the lymphatic fluid of rats was 10 to 53 times higher than that in whole blood (FIG. 60).

[3] = Plasma and lymphatic radioactivity after single oral [14C]EC-18 50 mg/kg in cannulated rats; assay type: in vivo, rat; settings: 50 mg/kg oral; for Radioactive Concentration in Plasma: n=3
Description: After inserting a cannula into the intestinal tract of male SD rats, the rats in fed condition were given a single dose of [^14C]EC-18 (oral dose of 50 mg/kg; vehicle: olive oil), and samples were collected after 0.5, 1, 2, 4, 6, and 8 hrs of administration. In parallel, lymphatic fluid samples were collected from conscious rats up to 8 hrs after administration. The radioactive concentrations in rat plasma and lymphatic fluid were measured by LSC after adding a scintillator, and the quantified data are shown in Table 19.

[4] = Plasma radioactivity in rats after single oral or IV [14C]EC-18; assay type: in vivo, rat
Description: Male SD rats in the fed state were administered a single oral dose of 25, 50, or 100 mg/kg (vehicle: olive oil) or a single IV injection of 10 mg/kg of [^14C]EC-18 (EC-18 with radioactive isotope ^14C attached). Subsequently, the PK parameters were assessed. The concentration of radioactivity in rat plasma was measured by liquid scintillation counting (LSC) method after adding a scintillator (Clear-Sol I, Nacalai Tesque, Inc).

[5] = Pathway of excretion in rats after single oral [14C]EC-18; assay type: in vivo, rat; settings: 50 mg/kg oral
Description: To assess the routes of EC-18 excretion, male rats were administered a single dose of [^14C]EC-18 (oral dose of 50 mg/kg), after which, radioactive concentrations were measured in urine, feces, and exhaled air in the chamber of the animals for 168 hrs, and in the body after the autopsy.

[6] = Oral 25 mg/kg, plasma, fed, n=3
[7] = Oral 50 mg/kg, plasma, fed, n=3
[8] = Oral 100 mg/kg, plasma, fed, n=3

SMILES: CCCCC/C=C\C/C=C\CCCCCCCC(=O)OC(CO)COC(=O)CCCCCCCCCCCCCCC (stereo not drawn) [PLH, palmitic linoleic hydroxyl glycerol, reference compound]
- No. of mice that survived/total (Balb/c mice, 6.11 Gy TBI): 8/20
- Survival (Balb/c mice, 6.11 Gy TBI): 40%
- Survival time of decedents, Mean ± SEM (Balb/c mice, 6.11 Gy TBI): 18.8 ± 1.6 days
- Survival time of decedents, Median (Balb/c mice, 6.11 Gy TBI): 18 days
- body weight loss induced by irradiation (Balb/c mice, 6.11 Gy TBI): aggravated body weight loss
- survival compared to control group (Balb/c mice, 6.11 Gy TBI; 250 mg/kg): no statistically significant difference

SMILES: CCCCC/C=C\C/C=C\CCCCCCCC(=O)OC(COC(C)=O)COC(=O)CCCCCCCCCCCCCCC (stereo not drawn) [[^14C]EC-18]
- site of highest radioactivity ([1]; 0.25 hr): stomach and small intestine
- site of highest radioactivity ([1]; 1 hr): stomach and small intestine
- site of highest radioactivity ([1]; 8 hrs): inner walls of the stomach
- radioactivity distribution ([1]; 24 hrs): low radioactivity was observed in the liver
- AUC0-inf ([2]; Lymphatic Fluid): 53900 ± 39100 μg eq · hr/mL
- AUC0-last ([2]; Lymphatic Fluid): 20400 ± 600 μg eq · hr/mL
- Cmax ([2]; Lymphatic Fluid): 1210 ± 200 µg/mL
- t1/2 ([2]; Lymphatic Fluid): 29.7 ± 28.1 h
- Tmax ([2]; Lymphatic Fluid): 7.0 ± 2.0 h
- AUC0-inf ([2]; Whole Blood, fasted): 819 ± 130 μg eq · hr/mL
- AUC0-last ([2]; Whole Blood, fasted): 496 ± 69 μg eq · hr/mL
- Cmax ([2]; Whole Blood, fasted): 38.8 ± 9.5 µg/mL
- t1/2 ([2]; Whole Blood, fasted): 16.8 ± 1.9 h
- Tmax ([2]; Whole Blood, fasted): 3.8 ± 2.9 h
- Radioactive Concentration in Plasma ([3]; 0.5 hr): 0.096 ± 0.096 μg eq/mL
- Radioactive Concentration in Plasma ([3]; 1 hr): 0.689 ± 0.796 μg eq/mL
- Radioactive Concentration in Plasma ([3]; 2 hr): 2.09 ± 1.65 μg eq/mL
- Radioactive Concentration in Plasma ([3]; 4 hr): 6.51 ± 2.21 μg eq/mL
- Radioactive Concentration in Plasma ([3]; 6 hr): 10.2 ± 2.7 μg eq/mL
- radioactive concentration in plasma as share of the administered dose ([3]; 8 h): approximately 28%
- Radioactive Concentration in Plasma ([3]; 8 hr, 50 mg/kg): 17.5 μg eq/mL and 17.5 ± 4.9 μg eq/mL
- AUClast ([4]; IV 10 mg/kg, plasma, fed, n=3): 215 ± 11 μg eq · hr/mL
- Cmax (= C0) ([4]; IV 10 mg/kg, plasma, fed, n=3): 81.5 ± 3.4 μg eq/mL
- t1/2 ([4]; IV 10 mg/kg, plasma, fed, n=3): 32.5 ± 1.2 h
- F ([4]; Oral 25 mg/kg): 46%
- AUClast [4, 6]: 224 ± 30 μg eq · hr/mL
- Cmax [4, 6]: 7.2 ± 1.4 μg eq/mL
- Tmax [4, 6]: 7.3 ± 5.0 h
- t1/2 [4, 6]: 32.0 ± 3.1 h
- F ([4]; Oral 50 mg/kg): 49%
- AUClast [4, 7]: 473 ± 53 μg eq · hr/mL
- Cmax [4, 7]: 16.6 ± 1.4 μg eq/mL
- Tmax [4, 7]: 4.7 ± 2.3 h
- t1/2 [4, 7]: 31.4 ± 1.8 h
- F ([4]; Oral 100 mg/kg): 42%
- AUClast [4, 8]: 830 ± 29 μg eq · hr/mL
- Cmax [4, 8]: 29.6 ± 2.7 μg eq/mL
- Tmax [4, 8]: 6.0 ± 3.5 h
- t1/2 [4, 8]: 31.7 ± 3.5 h
- Cumulative Radioactive Concentration Relative to the Administered Dose, Cage-Cleaning Water ([5]; 0-24 hr): 0.0 ± 0.0%
- Cumulative Radioactive Concentration Relative to the Administered Dose, Exhaled Air ([5]; 0-24 hr, 50 mg/kg): 71.0 ± 3.2%
- Cumulative Radioactive Concentration Relative to the Administered Dose, Feces ([5]; 0-24 hr, 50 mg/kg): 3.0 ± 0.5%
- Cumulative Radioactive Concentration Relative to the Administered Dose, Total ([5]; 0-24 hr, 50 mg/kg): 75.9 ± 3.2%
- Cumulative Radioactive Concentration Relative to the Administered Dose, Urine ([5]; 0-24 hr, 50 mg/kg): 1.9 ± 0.3%
- Cumulative Radioactive Concentration Relative to the Administered Dose, Cage-Cleaning Water ([5]; 0-48 hr): 0.1 ± 0.1%
- Cumulative Radioactive Concentration Relative to the Administered Dose, Exhaled Air ([5]; 0-48 hr): 75.0 ± 3.8%
- Cumulative Radioactive Concentration Relative to the Administered Dose, Feces ([5]; 0-48 hr): 3.6 ± 0.7%
- Cumulative Radioactive Concentration Relative to the Administered Dose, Total ([5]; 0-48 hr): 80.7 ± 3.8%
- Cumulative Radioactive Concentration Relative to the Administered Dose, Urine ([5]; 0-48 hr): 2.1 ± 0.3%
- Cumulative Radioactive Concentration Relative to the Administered Dose, Cage-Cleaning Water ([5]; 0-72 hr): 0.1 ± 0.0%
- Cumulative Radioactive Concentration Relative to the Administered Dose, Exhaled Air ([5]; 0-72 hr, 50 mg/kg): 76.7 ± 3.9%
- Cumulative Radioactive Concentration Relative to the Administered Dose, Feces ([5]; 0-72 hr, 50 mg/kg): 3.8 ± 0.7%
- Cumulative Radioactive Concentration Relative to the Administered Dose, Total ([5]; 0-72 hr, 50 mg/kg): 82.8 ± 3.9%
- Cumulative Radioactive Concentration Relative to the Administered Dose, Urine ([5]; 0-72 hr, 50 mg/kg): 2.2 ± 0.3%
- Cumulative Radioactive Concentration Relative to the Administered Dose, Cage-Cleaning Water ([5]; 0-96 hr): 0.1 ± 0.0%
- Cumulative Radioactive Concentration Relative to the Administered Dose, Exhaled Air ([5]; 0-96 hr): 77.7 ± 3.9%
- Cumulative Radioactive Concentration Relative to the Administered Dose, Feces ([5]; 0-96 hr): 3.9 ± 0.7%
- Cumulative Radioactive Concentration Relative to the Administered Dose, Total ([5]; 0-96 hr): 84.0 ± 3.8%
- Cumulative Radioactive Concentration Relative to the Administered Dose, Urine ([5]; 0-96 hr): 2.3 ± 0.4%
- Cumulative Radioactive Concentration Relative to the Administered Dose, Cage-Cleaning Water ([5]; 0-120 hr): 0.1 ± 0.0%
- Cumulative Radioactive Concentration Relative to the Administered Dose, Exhaled Air ([5]; 0-120 hr): 78.4 ± 3.9%
- Cumulative Radioactive Concentration Relative to the Administered Dose, Feces ([5]; 0-120 hr): 4.0 ± 0.7%
- Cumulative Radioactive Concentration Relative to the Administered Dose, Total ([5]; 0-120 hr): 84.8 ± 3.8%
- Cumulative Radioactive Concentration Relative to the Administered Dose, Urine ([5]; 0-120 hr): 2.3 ± 0.4%
- Cumulative Radioactive Concentration Relative to the Administered Dose, Cage-Cleaning Water ([5]; 0-144 hr): 0.1 ± 0.0%
- Cumulative Radioactive Concentration Relative to the Administered Dose, Exhaled Air ([5]; 0-144 hr): 78.9 ± 3.9%
- Cumulative Radioactive Concentration Relative to the Administered Dose, Feces ([5]; 0-144 hr): 4.1 ± 0.7%
- Cumulative Radioactive Concentration Relative to the Administered Dose, Total ([5]; 0-144 hr): 85.4 ± 3.8%
- Cumulative Radioactive Concentration Relative to the Administered Dose, Urine ([5]; 0-144 hr): 2.3 ± 0.4%
- Cumulative Radioactive Concentration Relative to the Administered Dose, Cage-Cleaning Water ([5]; 0-168 hr): 0.1 ± 0.0%
- Cumulative Radioactive Concentration Relative to the Administered Dose, Cadaver ([5]; 0-168 hr, 50 mg/kg): 9.8 ± 1.0%
- Cumulative Radioactive Concentration Relative to the Administered Dose, Exhaled Air ([5]; 0-168 hr, 50 mg/kg): 79.3 ± 3.9%
- Cumulative Radioactive Concentration Relative to the Administered Dose, Feces ([5]; 0-168 hr, 50 mg/kg): 4.2 ± 0.7%
- Cumulative Radioactive Concentration Relative to the Administered Dose, Total ([5]; 0-168 hr, 50 mg/kg): 95.7 ± 3.3%
- Cumulative Radioactive Concentration Relative to the Administered Dose, Urine ([5]; 0-168 hr, 50 mg/kg): 2.3 ± 0.4%
